Broadly, the IC50 is the concentration that gives 50% inhibition. A word on the pKa: it is the pH at which an ionisable group is half protonated. High values mean a group that holds its proton tightly, low ones a group that gives up its proton readily. Broadly, the logP is the decadic logarithm of the partition coefficient of the neutral form, usually between octanol and water. A higher logP goes with a more lipophilic compound.

This note sets out measurements from ChEMBL document CHEMBL1154017, “Functionalization of the A ring of pyridoacridine as a route toward greater structural diversity. Synthesis of an octacyclic analogue of eilatin” (Bioorg Med Chem Lett, 2009).

The source made the active and inactive calls. The calls are words filed in the database; no cut-off is given here.

Data set [1] in a line: Cytostatic activity against human HT29-AK cells. It counts as functional.
Data set [2] concerns A-431. Put plainly: Cytostatic activity against human A431 cells. It counts as functional, cell-based.
The nature of data set [3]: Dissociation constant, pKa at physiological pH. It counts as physicochemical.
The nature of data set [4]: Solubility in water. The conditions noted are these: buffer. It counts as physicochemical.
Data set [5] in a line: Partition coefficient, log P of the compound. It counts as physicochemical. The conditions noted are these: octanol/water.
In a further data set the test system is HT29-AK. Put plainly: Cytotoxic activity against human HT29-AK cells assessed as cell survival at 5 uM. It counts as functional, cell-based.
The subject of data set [6] is A-431. As to the kind of experiment: Cytotoxic activity against human A431 cells assessed as cell survival at 5 uM. It counts as functional. As to conditions: read-out: Activity.

Compound `CCOc1ccc2c3c(nccc13)-c1ccc(N)cc1N2` yielded an IC60 in data set [1] of 1.35 µM. In the data set on A-431 [2], this compound yielded a 50% inhibitory concentration (IC50) of 2.1 µM. In data set [3], this compound came in with a pKa of 5.3. Besides, the solubility entry in data set [4] was “Soluble”. Moreover, in data set [5], the logP turned out to be 2.62.
Take `CCOc1ccc2c3c(nccc13)-c1ccc3nc4c5cccnc5c5ncccc5c4nc3c1N2`: in the data set with HT29-AK, the result was inactive. In addition, the viability at 5 µM in the data set with A-431 [6] stood at 85%.
The compound `Clc1ccc2c(c1)Nc1cccc3ccnc-2c13` gave a pKa in data set [3] of 4.5. Also, the logP in data set [5] is 3.69.
